The values that follow are results of earlier work, collected in US20250114367A1, “METHOD OF TREATING HAIR LOSS DISORDERS” (Sun Pharmaceutical Industries, Inc., priority 2023, published 2025).

The series concerns subjects with AA. As to conditions: ritlecitinib 50 mg; up to 48 weeks; FIG. 13C; cited from earlier work.

Some results are limits rather than exact numbers.

On to `C=CC(=O)N1C[C@H](Nc2ncnc3[nH]ccc23)CC[C@@H]1C` [ritlecitinib], for which the “proportion of participants achieving SALT ≤20” value is at most 50%.
